Measurements published in US20130259884A1, “PEPTIDES” ([…] SL, priority 2010, published 2013).
Where a SMILES comes first, the peptide text is derived from it.

Test: Water solubility of peptides when preparing stock solutions
Format: physicochemical
Conditions: stock solution in sterile distilled water or 100% DMSO; read-out: solubility of peptide (water soluble or water insoluble, dissolved in DMSO)
Method in brief: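 Water-soluble peptides from water stocks and insoluble ones from 100% DMSO stocks (50 mg/ml), each diluted to 2 mg/ml in water then into media. Added singly or as pools to 350,000 PBMC in anti-IL-4 ELISPOT wells at 10 μg/ml final per peptide. Identically diluted media-only controls.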

CC[C@H](C)[C@H](NC(=O)[C@H](CCCCN)NC(=O)[C@H](Cc1c[nH]c2ccccc12)NC(=O)[C@@H](NC(=O)[C@H](Cc1ccc(O)cc1)NC(=O)[C@@H](N)CC(=O)O)C(C)C)C(=O)N[C@@H](CO)C(=O)N[C@@H](CCC(=O)O)C(=O)N[C@@H](Cc1ccccc1)C(=O)N[C@@H](Cc1ccc(O)cc1)C(=O)NCC(=O)N[C@@H](CCCNC(=N)N)C(=O)N[C@@H](CCCCN)C(=O)N1CCC[C@H]1C(=O)N[C@@H](CCC(=O)O)C(=O)O [Peptide 34.3, DYVWKISEFYGRKPE] (H-DYVWKISEFYGRKPE-OH)
solubility: > 2500 µg/mL
